# Experimental data: patent publication US8871753B2, “Macrocyclic compounds and their use as kinase inhibitors” (Incyte Corporation, priority 2008, dated 2014)
# Where a name gives a salt, the structure may show the parent alone.
# Columns and labels:
# Type in all cases: biochemical
# [1] = molecular target: T1, human JAK1 (a.a. 837-1142) (Homo sapiens, UniProt P23458); assay: In vitro JAK kinase assay (HTRF, phosphorylation of a biotinylated peptide), JAK1; details: Table B1; read-out: JAK1 IC50
# T1 construct: human JAK1 (a.a. 837-1142); His tag (N); made in house; host or cells: insect cells (baculovirus)
# In short: (§1)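 Phosphorylation of a biotinylated peptide by the JAK kinase domain, detected by HTRF with Eu-Py20 and SA-APC. ATP was 90 μM for JAK1, 30 μM for JAK2 and 3 μM for JAK3. Reactions ran 1 h at room temperature and were stopped with EDTA, followed by 40 min antibody binding.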
# [2] = molecular target: T2, human JAK3 (a.a. 781-1124) (Homo sapiens, UniProt P52333); assay: In vitro JAK kinase assay (HTRF, phosphorylation of a biotinylated peptide), JAK3; details: Table B1
# T2 construct: JAK3 (a.a. 781-1124); His tag (N); made in house; host or cells: insect cells (baculovirus)
# In short: as §1
# TYK2 = TYK2 (Homo sapiens, UniProt P29597); assay: TYK2 kinase inhibition (Table A1); details: Table B1
# [3] = molecular target: T3, human JAK2 (a.a. 828-1132) (Homo sapiens, UniProt O60674); assay: In vitro JAK kinase assay (HTRF, phosphorylation of a biotinylated peptide), JAK2; details: Table B1
# T3 construct: JAK2 (a.a. 828-1132); His tag (N); made in house; host or cells: insect cells (baculovirus)
# In short: as §1
# [4] = molecular target: T4, Recombinant Human Anaplastic Lymphoma Kinase (Homo sapiens, UniProt Q9UM73); assay: ALK HTRF kinase assay; details: for IC50: Table B1, cells without percent sign; for ALK % of inhibition at a concentration of 500 nM or 1 mM: compound at a concentration of 500 nM or 1 mM (not specified), cells shown as percentage
# T4 construct: purchased Invitrogen, Carlsbad, Calif
# In short: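 Kinase activity of the recombinant human protein is measured on a biotinylated peptide, with a Eu-W1024 anti-phosphotyrosine antibody and streptavidin-allophycocyanin generating the homogeneous time-resolved fluorescence signal. Inhibition curves are fitted to yield IC50.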
# T4 sequence (Q9UM73 19-1620): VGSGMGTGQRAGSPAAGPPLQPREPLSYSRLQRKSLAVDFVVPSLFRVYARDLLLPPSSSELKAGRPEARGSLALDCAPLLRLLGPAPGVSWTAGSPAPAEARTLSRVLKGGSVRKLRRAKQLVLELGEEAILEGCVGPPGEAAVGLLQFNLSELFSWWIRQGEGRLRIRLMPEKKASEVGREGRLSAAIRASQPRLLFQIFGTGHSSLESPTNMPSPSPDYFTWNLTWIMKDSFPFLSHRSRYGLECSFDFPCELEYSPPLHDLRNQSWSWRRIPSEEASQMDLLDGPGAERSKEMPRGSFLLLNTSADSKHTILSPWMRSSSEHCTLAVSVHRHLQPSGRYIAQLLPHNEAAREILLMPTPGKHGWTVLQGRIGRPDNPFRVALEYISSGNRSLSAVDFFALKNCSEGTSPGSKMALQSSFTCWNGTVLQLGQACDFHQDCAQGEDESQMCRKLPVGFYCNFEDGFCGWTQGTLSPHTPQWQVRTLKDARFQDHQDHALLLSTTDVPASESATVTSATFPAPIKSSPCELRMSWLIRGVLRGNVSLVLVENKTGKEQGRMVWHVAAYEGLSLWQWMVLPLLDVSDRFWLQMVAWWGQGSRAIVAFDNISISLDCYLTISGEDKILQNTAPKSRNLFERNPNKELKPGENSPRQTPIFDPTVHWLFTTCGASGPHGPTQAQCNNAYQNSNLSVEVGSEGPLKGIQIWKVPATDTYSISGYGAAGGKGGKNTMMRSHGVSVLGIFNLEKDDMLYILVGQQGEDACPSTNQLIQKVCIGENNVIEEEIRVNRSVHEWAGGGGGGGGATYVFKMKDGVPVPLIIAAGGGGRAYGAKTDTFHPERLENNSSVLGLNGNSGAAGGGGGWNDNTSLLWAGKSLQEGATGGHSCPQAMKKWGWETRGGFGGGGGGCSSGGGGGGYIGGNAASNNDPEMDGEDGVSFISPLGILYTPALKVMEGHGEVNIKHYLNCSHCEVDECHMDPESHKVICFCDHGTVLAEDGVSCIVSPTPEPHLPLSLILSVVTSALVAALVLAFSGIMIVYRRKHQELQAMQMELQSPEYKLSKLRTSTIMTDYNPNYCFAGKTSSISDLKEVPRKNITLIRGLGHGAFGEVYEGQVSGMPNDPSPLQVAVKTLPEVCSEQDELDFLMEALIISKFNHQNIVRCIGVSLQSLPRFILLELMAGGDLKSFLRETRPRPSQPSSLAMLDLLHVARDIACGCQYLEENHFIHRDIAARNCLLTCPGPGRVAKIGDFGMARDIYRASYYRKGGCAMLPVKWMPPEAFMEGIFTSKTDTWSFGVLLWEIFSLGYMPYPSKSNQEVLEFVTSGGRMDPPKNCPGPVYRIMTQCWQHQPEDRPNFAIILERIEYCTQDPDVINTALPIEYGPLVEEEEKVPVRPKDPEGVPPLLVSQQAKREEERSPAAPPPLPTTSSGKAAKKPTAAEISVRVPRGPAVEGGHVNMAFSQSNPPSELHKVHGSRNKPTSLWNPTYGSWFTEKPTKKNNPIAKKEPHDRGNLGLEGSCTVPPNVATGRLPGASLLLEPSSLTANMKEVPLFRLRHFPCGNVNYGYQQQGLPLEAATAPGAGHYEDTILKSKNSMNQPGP
# Sequence of TYK2 (P29597 whole entry): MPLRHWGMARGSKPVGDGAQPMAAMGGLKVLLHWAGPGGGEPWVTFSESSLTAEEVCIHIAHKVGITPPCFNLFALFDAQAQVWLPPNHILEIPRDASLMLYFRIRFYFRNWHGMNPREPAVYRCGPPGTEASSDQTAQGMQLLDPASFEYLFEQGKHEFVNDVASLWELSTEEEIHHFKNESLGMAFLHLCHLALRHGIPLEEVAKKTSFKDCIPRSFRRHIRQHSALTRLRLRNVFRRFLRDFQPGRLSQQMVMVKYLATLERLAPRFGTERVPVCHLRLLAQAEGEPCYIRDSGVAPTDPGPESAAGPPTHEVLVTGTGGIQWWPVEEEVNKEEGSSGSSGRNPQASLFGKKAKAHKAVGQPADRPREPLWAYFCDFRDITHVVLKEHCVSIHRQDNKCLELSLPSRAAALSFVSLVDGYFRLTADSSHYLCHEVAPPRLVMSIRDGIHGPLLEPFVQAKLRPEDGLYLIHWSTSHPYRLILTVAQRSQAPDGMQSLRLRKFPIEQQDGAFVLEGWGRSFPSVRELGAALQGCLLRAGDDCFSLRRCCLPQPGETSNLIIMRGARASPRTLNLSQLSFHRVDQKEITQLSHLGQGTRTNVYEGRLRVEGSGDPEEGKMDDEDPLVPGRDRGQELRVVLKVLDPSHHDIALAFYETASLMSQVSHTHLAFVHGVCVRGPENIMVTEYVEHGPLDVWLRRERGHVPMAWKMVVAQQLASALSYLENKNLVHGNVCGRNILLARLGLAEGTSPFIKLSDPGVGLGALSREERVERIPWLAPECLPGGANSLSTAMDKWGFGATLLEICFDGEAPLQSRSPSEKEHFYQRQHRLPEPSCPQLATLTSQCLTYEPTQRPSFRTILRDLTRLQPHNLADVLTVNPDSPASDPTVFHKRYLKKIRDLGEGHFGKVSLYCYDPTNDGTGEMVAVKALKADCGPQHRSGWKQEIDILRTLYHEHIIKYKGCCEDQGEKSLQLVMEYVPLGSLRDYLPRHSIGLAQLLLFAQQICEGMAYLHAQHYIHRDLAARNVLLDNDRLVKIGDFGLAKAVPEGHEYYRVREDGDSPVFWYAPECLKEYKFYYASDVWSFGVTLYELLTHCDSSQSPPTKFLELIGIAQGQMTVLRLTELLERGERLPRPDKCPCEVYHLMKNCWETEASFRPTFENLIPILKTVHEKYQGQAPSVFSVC
# T2 sequence (P52333 781-1124): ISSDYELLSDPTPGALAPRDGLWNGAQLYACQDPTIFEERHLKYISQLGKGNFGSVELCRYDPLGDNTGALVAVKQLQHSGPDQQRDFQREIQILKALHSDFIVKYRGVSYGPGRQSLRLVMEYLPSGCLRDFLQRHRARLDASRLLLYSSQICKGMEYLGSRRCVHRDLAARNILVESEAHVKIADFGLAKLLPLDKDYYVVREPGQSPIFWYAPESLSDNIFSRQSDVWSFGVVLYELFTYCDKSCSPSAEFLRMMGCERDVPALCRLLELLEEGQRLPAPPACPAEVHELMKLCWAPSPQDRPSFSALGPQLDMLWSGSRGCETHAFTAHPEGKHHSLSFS
# T1 sequence (P23458 849-1154): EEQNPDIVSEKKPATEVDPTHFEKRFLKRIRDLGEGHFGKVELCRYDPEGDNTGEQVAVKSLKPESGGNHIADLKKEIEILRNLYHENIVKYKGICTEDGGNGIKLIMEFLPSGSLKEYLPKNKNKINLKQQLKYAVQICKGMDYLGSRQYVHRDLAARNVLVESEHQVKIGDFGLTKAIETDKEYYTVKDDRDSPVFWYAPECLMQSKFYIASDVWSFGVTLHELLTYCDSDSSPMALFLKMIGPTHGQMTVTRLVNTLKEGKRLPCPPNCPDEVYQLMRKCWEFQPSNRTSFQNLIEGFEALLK
# T3 sequence (O60674 828-1132): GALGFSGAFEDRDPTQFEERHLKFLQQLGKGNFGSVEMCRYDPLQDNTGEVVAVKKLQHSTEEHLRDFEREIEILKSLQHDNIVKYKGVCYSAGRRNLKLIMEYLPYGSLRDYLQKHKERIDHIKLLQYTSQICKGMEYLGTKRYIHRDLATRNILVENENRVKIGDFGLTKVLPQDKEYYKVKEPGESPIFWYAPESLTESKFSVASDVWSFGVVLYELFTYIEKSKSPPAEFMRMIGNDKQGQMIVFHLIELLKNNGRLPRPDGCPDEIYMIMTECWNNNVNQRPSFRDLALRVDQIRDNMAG
Structure (SMILES),IC50 [1] [nM],IC50 [2] [nM],IC50 (TYK2) [nM],IC50 [3] [nM],IC50 [4] [nM],ALK % of inhibition at a concentration of 500 nM or 1 mM [4] [%]
"O=C(Nc1ccc(Cl)cc1)c1cc2cc(c1)Nc1nc(ncc1Cl)Nc1cccc(c1)CC2 [Example B15, 6-Chloro-N-(4-chlorophenyl)-2,4,8,22-tetraazatetracyclo[14.3.1.1(3,7).1(9,13)]docosa-1(20),3(22),4,6,9(21),10,12,16,18-nonaene-11-carboxamide trifluoroacetate]",160,365,> 1000,111,> 1000,
"CC(C)(C)NS(=O)(=O)c1cc2cc(c1)Nc1nc(ncc1Cl)Nc1cccc(c1)CC2 [Example B16, N-(tert-Butyl)-6-chloro-2,4,8,22-tetraazatetracyclo[14.3.1.1(3,7).1(9,13)]docosa-1(20),3(22),4,6,9(21),10,12,16,18-nonaene-11-sulfonamide trifluoroacetate]",52,182,206,7.5,> 10000,
"CC(C)(C)NS(=O)(=O)c1cc2cc(c1)Nc1nc(ncc1Br)Nc1cccc(c1)CC2 [Example B17, 6-Bromo-N-(tert-butyl)-2,4,8,22-tetraazatetracyclo[14.3.1.1(3,7).1(9,13)]docosa-1(20),3(22),4,6,9(21),10,12,16,18-nonaene-11-sulfonamide trifluoroacetate]",71,126,152,11,> 10000,
"NS(=O)(=O)c1cc2cc(c1)Nc1nc(ncc1Br)Nc1cccc(c1)CC2 [Example B18, 6-Bromo-2,4,8,22-tetraazatetracyclo[14.3.1.1(3,7).1(9,13)]docosa-1(20),3(22),4,6,9(21),10,12,16,18-nonaene-11-sulfonamide trifluoroacetate]",107,64,178,23,> 1000,
"Nc1ccc2cc1CCc1cccc(c1)Nc1ncc(Cl)c(n1)N2 [Example B19, 6-Chloro-2,4,8,22-tetraazatetracyclo[14.3.1.1(3,7).1(9,13)]docosa-1(20),3(22),4,6,9(21),10,12,16,18-nonaen-12-amine dihydrochloride]",1.3,7.5,2.5,0.97,610,
"Nc1cc2cc(c1)Nc1nc(ncc1Cl)Nc1cccc(c1)CC2 [Example B21, 6-Chloro-2,4,8,22-tetraazatetracyclo[14.3.1.1(3,7).1(9,13)]docosa-1(20),3(22),4,6,9(21),10,12,16,18-nonaen-11-amine bis(trifluoroacetate)]",18,21,32,6.3,1500,
"COC(=O)c1ccc2cc1CCc1cccc(c1)Nc1ncc(Cl)c(n1)N2 [Example B22, Methyl 6-chloro-2,4,8,22-tetraazatetracyclo[14.3.1.1(3,7).1(9,13)]docosa-1(20),3(22),4,6,9(21),10,12,16,18-nonaene-12-carboxylate trifluoroacetate]",144,104,41,11,1440,
"OCc1ccc2cc1CCc1cccc(c1)Nc1ncc(Cl)c(n1)N2 [Example B23, [6-Chloro-2,4,8,22-tetraazatetracyclo[14.3.1.1(3,7).1(9,13)]docosa-1(20),3(22),4,6,9(21),10,12,16,18-nonaen-12-yl]methanol trifluoroacetate]",0.2,1.2,1.8,0.8,,75
"OCc1cc2cc(c1)Nc1nc(ncc1Cl)Nc1cccc(c1)CC2 [Example B24, [6-Chloro-2,4,8,22-tetraazatetracyclo[14.3.1.1(3,7).1(9,13)]docosa-1(20),3(22),4,6,9(21),10,12,16,18-nonaen-11-yl]methanol trifluoroacetate]",14,5.8,18,2.3,781,
"O=C(Nc1ccc2cc1CCc1cncc(c1)Nc1ncc(Cl)c(n1)N2)N[C@H]1CCNC1 [Example B25, N-[6-Chloro-2,4,8,18,22-pentaazatetracyclo[14.3.1.1(3,7).1(9,13)]docosa-1(20),3(22),4,6,9(21),10,12,16,18-nonaen-12-yl]-N′-[(3S)-pyrrolidin-3-yl]urea trihydrochloride]",12,153,50,36,,14
"CC(=O)Nc1ccc2cc1CCc1cccc(c1)Nc1ncc(Cl)c(n1)N2 [Example B26, N-[6-Chloro-2,4,8,22-tetraazatetracyclo[14.3.1.1(3,7).1(9,13)]docosa-1(20), 3(22),4,6,9(21),10,12,16,18-nonaen-12-yl]acetamide trifluoroacetate]",6.5,7.4,15,4.1,1100,
"O=C(Nc1ccc2cc1CCc1cccc(c1)Nc1ncc(Cl)c(n1)N2)C1CC1 [Example B27, N-[6-Chloro-2,4,8,22-tetraazatetracyclo[14.3.1.1(3,7).1(9,13)]docosa-1(20), 3(22),4,6,9(21),10,12,16,18-nonaen-12-yl]cyclopropanecarboxamide trifluoroacetate]",5.2,8.5,15,3.7,880,
"COCC(=O)Nc1ccc2cc1CCc1cccc(c1)Nc1ncc(Cl)c(n1)N2 [Example B28, N-[6-Chloro-2,4,8,22-tetraazatetracyclo[14.3.1.1(3,7).1(9,13)]docosa-1(20), 3(22),4,6,9(21),10,12,16,18-nonaen-12-yl]-2-methoxyacetamide trifluoroacetate]",8.2,10,20,4.1,1800,
"O=C(Nc1ccc2cc1CCc1cccc(c1)Nc1ncc(Cl)c(n1)N2)c1ccccc1 [Example B29, N-[6-Chloro-2,4,8,22-tetraazatetracyclo[14.3.1.1(3,7).1(9,13)]docosa-1(20), 3(22),4,6,9(21),10,12,16,18-nonaen-12-yl]benzamide trifluoroacetate]",0.24,3.3,1.7,0.48,96,
"O=C(Nc1ccc2cc1CCc1cccc(c1)Nc1ncc(Cl)c(n1)N2)c1cccnc1 [Example B30, N-[6-Chloro-2,4,8,22-tetraazatetracyclo[14.3.1.1(3,7).1(9,13)]docosa-1(20), 3(22),4,6,9(21),10,12,16,18-nonaen-12-yl]nicotinamide bis(trifluoroacetate)]",0.87,2.9,2.5,0.78,260,
"Cn1ccc(C(=O)Nc2ccc3cc2CCc2cccc(c2)Nc2ncc(Cl)c(n2)N3)n1 [Example B31, N-[6-Chloro-2,4,8,22-tetraazatetracyclo[14.3.1.1(3,7).1(9,13)]docosa-1(20), 3(22),4,6,9(21),10,12,16,18-nonaen-12-yl]-1-methyl-1H-pyrazole-3-carboxamide trifluoroacetate]",5.4,69,10,3.7,> 10000,
